Laboratory results published in US20100004443A1, “LINEAR PYRIDAZINE AND PYRROLE COMPOUNDS, METHOD FOR OBTAINING THEM AND APPLICATIONS” (CENTRE NATIONAL DE LA RECHERCHE SCIENTIFIQUE (C.N., priority 2006, published 2010).
Values after ≈ are worked out from the molar mass of the structure shown. Values joined by “and” are separate entries in the source; they are usually repeats but may differ in a detail not shown here. Equal values may be shown once.

Assays:
KB cells = assay: Cytotoxicity on KB cells; assay type: cell-based
Leishmania mexicana = assay: Parasitology, Leishmania mexicana; assay type: cell-based; settings: read-out: Parasitology IC50 or 80 Leishmania mexicana
Candida albicans = assay: Parasitology, Candida albicans; assay type: cell-based; settings: read-out: Parasitology IC50 or 80 Candida albicans
[1] = system: KB, Caco, Huh7 and fibroblast cells; assay: in vitro cytotoxicity test on KB, Caco, Huh7 and fibroblast cells; assay type: cell-based
Description: Preferably, the cancer concerned by the invention is a carcinoma, for instance a carcinoma of the ear, nose or throat, of the lungs, of the uterus, of the digestive system (oesophagus, colon, liver), of the skin, of the breasts, of the prostate, of the ovaries, etc.

Cytotoxicity on KB cells = assay type: cell-based; settings: human, KB cells
E. coli = assay: Inhibition of the growth of E. coli; assay type: cell-based
tonB protein = tonB protein (Escherichia coli, UniProt P02929); assay: Effect on tonB protein (iron transfer for bacterial growth)
[2] = second value (cell beside the first)

tonB protein, sequence (P02929 whole entry): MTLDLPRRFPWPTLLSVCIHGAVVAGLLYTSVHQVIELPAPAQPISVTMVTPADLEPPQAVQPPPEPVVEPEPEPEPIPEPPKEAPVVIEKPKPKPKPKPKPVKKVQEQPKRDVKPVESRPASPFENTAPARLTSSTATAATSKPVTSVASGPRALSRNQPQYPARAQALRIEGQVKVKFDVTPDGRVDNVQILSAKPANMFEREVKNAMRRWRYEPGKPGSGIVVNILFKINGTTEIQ

In the case of `O=C(O)c1cccc(-c2ccc(-c3ccccn3)nn2)n1` [Compound 45, 3-(2-carboxypyridin-6-yl)-6-(pyridin-2-yl)-pyridazine], the “KB cells Cytotoxicity % inhibition à [10^−5]” value (KB cells; first value) is reported as 9%, the “KB cells Cytotoxicity % inhibition à [10^−5]” value (KB cells; [2]) is reported as 3% and the IC50 (Leishmania mexicana) is reported as 14 µM and 3.9 µg/mL. It also gave an IC50 (Candida albicans) greater than 100 µM.
In the case of `c1ccc(-c2ccc(-c3ccccn3)nn2)nc1` [Compound 80, 3,6-bispyridin-2-ylpyridazine], the “cytotoxic activity in a cancerous cell model” value (from here on “cytotoxic activity”) [1] is reported as “very high levels of cytotoxic activity”.
In the case of `Cc1cccc(-c2ccc(-c3ccc(-c4cccc(C)n4)nn3)nn2)n1` [Compound 2, 6,6′-bis(6-methylpyridin-2-yl)-3,3′-bipyridazine], the “KB cells Cytotoxicity % inhibition à [10^−5]” value (KB cells; first value) is reported as 23%, the “KB cells Cytotoxicity % inhibition à [10^−5]” value (KB cells; [2]) is reported as 12% and the IC50 (Leishmania mexicana) is reported as 2.2 µM and 0.91 µg/mL. The IC50 (Candida albicans) was 62 µM and 25.9 µg/mL.
With `C=C(OCC)c1ccc(-c2ccc(C(=C)OCC)nn2)nn1` [Compound 24, 6,6′-di-(1-ethoxyvinyl)-3,3′-bipyridazine] the IC50 (Cytotoxicity on KB cells) was 1.23 µM and 0.37 µg/mL, the IC50 (KB cells; Homo sapiens, KB, read-out: IC50 on KB cancerous cells) was 0.3 µg/mL (≈ 1.01 µM) and the “KB cells Cytotoxicity % inhibition à [10^−5]” value (KB cells; first value) was 96%. The “KB cells Cytotoxicity % inhibition à [10^−5]” value (KB cells; [2]) was 95%, the “cytotoxic activity” value [1] was “very high levels of cytotoxic activity” and the “inhibition of the growth of E. coli” value (E. coli) was “able to inhibit the growth of E. coli”. For the same molecule, the “effect on the tonB protein” value (tonB protein) was “affects the tonB protein”.
With `c1ccc(-c2ccc(-c3ccc(-c4ccccn4)nn3)nn2)nc1` [Compound 19, 6,6′-bis(pyridin-2-yl)-3,3′-bipyridazine] the “KB cells Cytotoxicity % inhibition à [10^−5]” value (KB cells; first value) was 16%.
With `O=C(O)c1cccc(-c2ccc(-c3cccc(C(=O)O)n3)nn2)n1` [Compound 48, 3,6-bis(2-carboxypyridin-6-yl)-pyridazine] the “KB cells Cytotoxicity % inhibition à [10^−5]” value (KB cells; first value) was 21%, the IC50 (Leishmania mexicana) was 3 µM and 0.96 µg/mL and the IC50 (Candida albicans) was > 100 µM and ≥ 32.2 µg/mL.
With `S=c1ccc(-c2ccccn2)n[nH]1` [Compound 10, 6-(pyridin-2-yl)-2H-pyridazin-3-thione] the “KB cells Cytotoxicity % inhibition à [10^−5]” value (KB cells; first value) was 84%, the “KB cells Cytotoxicity % inhibition à [10^−5]” value (KB cells; [2]) was 74% and the “cytotoxic activity” value [1] was “very high levels of cytotoxic activity”.
In the case of `Cc1cccc(-c2ccc(-c3ccccn3)nn2)n1` [Compound 44, 3-(6-methylpyridin-2-yl)-6-(pyridin-2-yl)pyridazine], the “KB cells Cytotoxicity % inhibition à [10^−5]” value (KB cells; first value) is reported as 11%, the “KB cells Cytotoxicity % inhibition à [10^−5]” value (KB cells; [2]) is reported as 21% and the IC50 (Leishmania mexicana) is reported as < 1 µM and < 0.25 µg/mL. The IC50 (Candida albicans) was 600 nM and 0.15 µg/mL and the “cytotoxic activity” value [1] was “very high levels of cytotoxic activity”.
With `CCCCc1cc(-c2ccccn2)[nH]c1-c1ccccn1` [Compound 68] the “KB cells Cytotoxicity % inhibition à [10^−5]” value (KB cells; first value) was 43%.
